# Measurements published in patent US20250221413A1, “Use and Preparation Method of Sulfoxamyl, and Oxidation System” (priority 2023, published 2025).
# “And” between values parts separate entries of the source, which are not always exact repeats. Identical values can stand only once. Like-named read-outs stand apart in the source and are kept apart here.
# Tests used:
# [1] = test system: Meloidogyne incognita; assay: Indoor toxicity test against Meloidogyne incognita second-instar larvae (J2)
# Protocol: Materials: the tested nematodes were collected from three different areas, namely cucumber crops in Dawenkou Town, Tai'an City, Shandong Province, and were all identified as southern root-knot nematodes (Meloidogyne incognita). The diseased roots were washed, cut into small sections of 0.5 cm to 1 cm, rinsed in 1% NaClO solution for about 30 s to 60 s, and rinsed with 200-mesh and 500-mesh sieves to collect nematode eggs for later use. The collected eggs were incubated at 25° C. using the Bayman funnel method and the second-instar larvae were collected 1 time per 24 h to ensure that the second-instar larvae selected each time were fresh and of consistent vitality.
# The agent was 98% sulfoxamyl technical, and the comparison agents were 96% oxamyl technical and 87% fosthiazate technical.
# The preparation for the agent was in accordance with the provisions for preparation of the liquid medicine in the Agricultural Industry Standard of the People's Republic of China NYT 1833.1-2009 “Guideline for laboratory bioassay of pesticides”, as shown in Table 6.
# Methods: according to the experimental plan, the test agent was diluted to different mass concentrations, and 0.5 mL of the agent solution and 0.5 mL of the nematode solution (containing about 100 nematodes) were added into a 24-well cell culture plate. The treatment with each concentration of the agent was repeated 4 times, and auxiliary agent control and blank control were also conducted. […]
# [2] = test system: Meloidogyne incognita eggs; assay: Inhibitory effect on hatching of Meloidogyne incognita eggs; format: in vivo; conditions: 7 d
# [3] = test system: SD rats; assay: Acute oral toxicity test, single oral fixed-dose procedure; format: in vivo; conditions: single oral dose 500 mg/kg
# Protocol: Materials: the test agent 98% sulfoxamyl technical, batch number 20230708-1, was provided by Ningxia Hugerise Chemical Co., Ltd. Experimental animals: SPF-grade SD rats, half male and half female, weighing 180 g to 220 g, were provided by Jinan Pengyue Experimental Animal Breeding Co., Ltd., license number SCXK (Lu) 20190003. Rearing environment: the rats were housed in an SPF-grade animal room with free access to water and food, a temperature of 20° C. to 25° C., a humidity of 40% to 60%, and a 12 h/12 h light cycle. Feed: conventional pellet feed was provided by Jinan Pengyue Experimental Animal Breeding Co., Ltd.
# The test was conducted in accordance with “Toxicological test methods of pesticides for registration, GB15670.5-2017”, “Acute toxicity test, GB15193.3-2003” and relevant acute toxicity research data.
# Methods: a single oral fixed-dose procedure was conducted to preliminarily explore the toxic dose range of sulfoxamyl. LD50 and confidence limits were calculated by using the probability unit method (Bliss method). SD rats were randomly divided into 5 groups, 10 rats in each group, half of them were male and half were female. […] The common ratio value among each dose group was 0.75. After a single oral administration, the mortality rate of the experimental animals was recorded within 24 h and 14 days after administration, while the general condition of the animals was observed, and the food intake and body weight changes were recorded.
# [4] = Meloidogyne incognita, 24 h, 50 mg/L
# [5] = Meloidogyne incognita, 24 h, 100 mg/L
# [6] = Meloidogyne incognita, 24 h, read-out: Corrected mortality, 50 mg/L, 24 h
# [7] = Meloidogyne incognita, 24 h, read-out: Corrected mortality, 100 mg/L, 24 h
# [8] = Meloidogyne incognita, 168 h, egg hatching
smiles,measurement,setting,value
"CCOP(=O)(SC(C)CC)N1CCSC1=O (stereo not shown) [Fosthiazate, fosthiazate]",Corrected mortality,"[1]; 3.125 mg/L, 24 h",17.51% and 18.63% and 12.52%
same,Death count,"[1]; 3.125 mg/L, 24 h",24 and 38 and 26 and 20
same,Mortality,"[1]; 3.125 mg/L, 24 h",23.90% and 25.74% and 16.13%
same,Corrected mortality,"[1]; 6.25 mg/L, 24 h",33.03% and 29.63% and 42.23%
same,Death count,"[1]; 6.25 mg/L, 24 h",36 and 60 and 39 and 58
same,Mortality,"[1]; 6.25 mg/L, 24 h",38.22% and 35.78% and 44.62%
same,Corrected mortality,"[1]; 12.5 mg/L, 24 h",57.70% and 46.22% and 41.17% and 62.23%
same,Death count,"[1]; 12.5 mg/L, 24 h",80 and 64 and 69 and 74
same,Mortality,"[1]; 12.5 mg/L, 24 h",50.39% and 46.31% and 63.79%
same,Corrected mortality,"[1]; 25 mg/L, 24 h",74.92% and 67.46% and 64.47%
same,Death count,"[1]; 25 mg/L, 24 h",68 and 93 and 116 and 91
same,Mortality,"[1]; 25 mg/L, 24 h",76.86% and 70.30% and 65.94%
same,Corrected mortality,"[1]; 50 mg/L, 24 h",79.38% and 77.71% and 74.49%
same,Death count,"[1]; 50 mg/L, 24 h",84 and 132 and 94 and 105
same,Mortality,"[1]; 50 mg/L, 24 h",80.98% and 79.66% and 75.54%
same,Corrected mortality,"[1]; 100 mg/L, 24 h",75.25% and 86.39% and 79.87%
same,Death count,"[1]; 100 mg/L, 24 h",117 and 98 and 141 and 92
same,Mortality,"[1]; 100 mg/L, 24 h",77.17% and 87.58% and 80.70%
same,LC90,[1]; 24 h,146.50 µg/mL
same,LC50,"[1]; Meloidogyne incognita, 24 h",14.6 µg/mL
same,mortality at 3.125 µg/mL,"[1]; Meloidogyne incognita, 24 h, 3.125 mg/L",16.6%
same,mortality at 6.25 µg/mL,"[1]; Meloidogyne incognita, 24 h, 6.25 mg/L",28.6%
same,mortality at 12.5 µg/mL,"[1]; Meloidogyne incognita, 24 h, 12.5 mg/L",59.7%
same,mortality at 25 µg/mL,"[1]; Meloidogyne incognita, 24 h, 25 mg/L",64.2%
same,mortality at 50 µg/mL,[1]; [4],82.3%
same,mortality at 100 µg/mL,[1]; [5],80.1%
same,mortality at 3.125 µg/mL,"[1]; Meloidogyne incognita, 24 h, read-out: Corrected mortality, 3.125 mg/L, 24 h",12.4%
same,mortality at 6.25 µg/mL,"[1]; Meloidogyne incognita, 24 h, read-out: Corrected mortality, 6.25 mg/L, 24 h",25%
same,mortality at 25 µg/mL,"[1]; Meloidogyne incognita, 24 h, read-out: Corrected mortality, 25 mg/L, 24 h",62.4%
same,mortality at 50 µg/mL,[1]; [6],81.5%
same,mortality at 100 µg/mL,[1]; [7],79.2%
"CNC(=O)O/N=C(\SC)C(=O)N(C)C [Oxamyl, N,N-dimethyl-2-[[[(methylamino)carbonyl]oxy]imino]-2-(methylthio)acetamide]",Corrected mortality,"[1]; 25 mg/L, 24 h",6.89% and 2.76% and 3.40% and 3.65%
same,Mortality,"[1]; 25 mg/L, 24 h",8.04% and 3.96% and 4.59% and 4.84%
same,Corrected mortality,"[1]; 25 mg/L, 48 h",12.13% and 16.63% and 6.92% and 6.73%
same,Death count,"[1]; 25 mg/L, 48 h",15 and 18 and 9 and 10
same,Mortality,"[1]; 25 mg/L, 48 h",13.39% and 17.82% and 8.26% and 8.06%
same,Corrected mortality,"[1]; 25 mg/L, 72 h",23.34% and 15.88% and 15.37%
same,Death count,"[1]; 25 mg/L, 72 h",20 and 25 and 19 and 21
same,Mortality,"[1]; 25 mg/L, 72 h",24.75% and 17.43% and 16.94%
same,Corrected mortality,"[1]; 50 mg/L, 24 h",29.73% and 26.88% and 16.90%
same,Mortality,"[1]; 50 mg/L, 24 h",30.60% and 27.78% and 17.92%
same,Corrected mortality,"[1]; 50 mg/L, 48 h",44.73% and 39.88% and 31.09%
same,Mortality,"[1]; 50 mg/L, 48 h",45.52% and 40.74% and 32.08%
same,Corrected mortality,"[1]; 50 mg/L, 72 h",55.90% and 59.44% and 45.22%
same,Death count,"[1]; 50 mg/L, 72 h",41 and 76 and 65 and 49
same,Mortality,"[1]; 50 mg/L, 72 h",56.72% and 60.19% and 46.23%
same,Corrected mortality,"[1]; 100 mg/L, 24 h",48.91% and 58.66% and 60.23%
same,Death count,"[1]; 100 mg/L, 24 h",74 and 54 and 71 and 68
same,Mortality,"[1]; 100 mg/L, 24 h",49.54% and 59.17% and 60.71%
same,Corrected mortality,"[1]; 100 mg/L, 48 h",76.73% and 76.33% and 80.98%
same,Death count,"[1]; 100 mg/L, 48 h",90 and 84 and 92 and 91
same,Mortality,"[1]; 100 mg/L, 48 h",77.06% and 76.67% and 81.25%
same,Corrected mortality,"[1]; 100 mg/L, 72 h",75.93% and 81.31% and 83.87% and 97.27%
same,Death count,"[1]; 100 mg/L, 72 h",97 and 89 and 101 and 109
same,Mortality,"[1]; 100 mg/L, 72 h",76.38% and 81.65% and 84.17% and 97.32%
same,Corrected mortality,"[1]; 200 mg/L, 24 h",69.90% and 86.37% and 84.57% and 94.67%
same,Death count,"[1]; 200 mg/L, 24 h",78 and 90 and 89
same,Mortality,"[1]; 200 mg/L, 24 h",70.27% and 86.54% and 84.76% and 94.74%
same,Corrected mortality,"[1]; 200 mg/L, 48 h",90.24% and 92.27% and 97.86%
same,Death count,"[1]; 200 mg/L, 48 h",104 and 94 and 97 and 93
same,Mortality,"[1]; 200 mg/L, 48 h",90.38% and 92.38% and 97.89%
same,Corrected mortality,"[1]; 200 mg/L, 72 h",94.12% and 94.18% and 98.93%
same,Death count,"[1]; 200 mg/L, 72 h",108 and 98 and 99 and 94
same,Mortality,"[1]; 200 mg/L, 72 h",94.23% and 94.29% and 98.95%
same,Death count,"[1]; 400 mg/L, 24 h",99 and 101 and 117 and 112
same,Death count,"[1]; 400 mg/L, 48 h",101 and 108 and 119 and 117
same,Death count,"[1]; 400 mg/L, 72 h",103 and 110 and 120 and 118
same,LC90,[1]; 24 h,273.89 µg/mL
same,LC90,[1]; 48 h,181.92 µg/mL
same,LC90,[1]; 72 h,131.82 µg/mL
same,LC50,"[1]; Meloidogyne incognita, 24 h",94.8 µg/mL
same,mortality at 50 µg/mL,[1]; [4],23.8%
same,mortality at 100 µg/mL,[1]; [5],58.3%
same,mortality at 400 µg/mL,"[1]; Meloidogyne incognita, 24 h, 400 mg/L",96.1%
same,mortality at 50 µg/mL,[1]; [6],22.8%
same,mortality at 100 µg/mL,[1]; [7],57.8%
same,mortality at 400 µg/mL,"[1]; Meloidogyne incognita, 24 h, read-out: Corrected mortality, 400 mg/L, 24 h",96.1%
same,LC50,"[1]; Meloidogyne incognita, 48 h",64.4 µg/mL
same,mortality at 50 µg/mL,"[1]; Meloidogyne incognita, 48 h, 50 mg/L",29.7%
same,mortality at 100 µg/mL,"[1]; Meloidogyne incognita, 48 h, 100 mg/L",70.9%
same,mortality at 200 µg/mL,"[1]; Meloidogyne incognita, 48 h, 200 mg/L",93.7%
same,mortality at 400 µg/mL,"[1]; Meloidogyne incognita, 48 h, 400 mg/L",98.1%
same,mortality at 50 µg/mL,"[1]; Meloidogyne incognita, 48 h, read-out: Corrected mortality, 50 mg/L, 48 h",28.7%
same,mortality at 100 µg/mL,"[1]; Meloidogyne incognita, 48 h, read-out: Corrected mortality, 100 mg/L, 48 h",70.4%
same,mortality at 200 µg/mL,"[1]; Meloidogyne incognita, 48 h, read-out: Corrected mortality, 200 mg/L, 48 h",93.6%
same,mortality at 400 µg/mL,"[1]; Meloidogyne incognita, 48 h, read-out: Corrected mortality, 400 mg/L, 48 h",98%
same,LC50,"[1]; Meloidogyne incognita, 72 h",49.6 µg/mL
same,mortality at 25 µg/mL,"[1]; Meloidogyne incognita, 72 h, 25 mg/L",17.9%
same,mortality at 50 µg/mL,"[1]; Meloidogyne incognita, 72 h, 50 mg/L",40.6%
same,mortality at 200 µg/mL,"[1]; Meloidogyne incognita, 72 h, 200 mg/L",97.3%
same,mortality at 400 µg/mL,"[1]; Meloidogyne incognita, 72 h, 400 mg/L",100%
same,mortality at 25 µg/mL,"[1]; Meloidogyne incognita, 72 h, read-out: Corrected mortality, 25 mg/L, 72 h",16.3%
same,mortality at 50 µg/mL,"[1]; Meloidogyne incognita, 72 h, read-out: Corrected mortality, 50 mg/L, 72 h",39.5%
same,mortality at 200 µg/mL,"[1]; Meloidogyne incognita, 72 h, read-out: Corrected mortality, 200 mg/L, 72 h",97.2%
same,mortality at 400 µg/mL,"[1]; Meloidogyne incognita, 72 h, read-out: Corrected mortality, 400 mg/L, 72 h",100%
same,Number of hatched eggs/7 d,[2]; 25 mg/L,81 and 92 and 90
same,Number of unhatched eggs/7 d,[2]; 25 mg/L,47 and 36 and 42
same,Number of hatched eggs/7 d,[2]; 50 mg/L,83 and 86 and 78
same,Number of unhatched eggs/7 d,[2]; 50 mg/L,53 and 52
same,Number of hatched eggs/7 d,[2]; 100 mg/L,62 and 72 and 71
same,Number of unhatched eggs/7 d,[2]; 100 mg/L,68 and 60 and 58
same,Number of hatched eggs/7 d,[2]; 200 mg/L,26 and 20 and 23
same,Number of unhatched eggs/7 d,[2]; 200 mg/L,97 and 101 and 103
same,Number of hatched eggs/7 d,[2]; 400 mg/L,12 and 15 and 11
same,Number of unhatched eggs/7 d,[2]; 400 mg/L,113 and 117 and 121
same,IC50,[2]; [8],91.6 µg/mL
same,IC90,[2]; [8],480 µg/mL
same,Death count,[3],6/6
same,Main clinical symptom,[3],All rats died within 5 min
